Reference: US20190085024A1, “Alpha-Ketoamide Inhibitors Of Cysteine Proteases” (Phelix Therapeutics, priority 2017, published 2019)

Legend:
[1] = target: Cathepsin L (Homo sapiens, UniProt P07711); assay: Cathepsin L enzyme assay; assay type: biochemical; settings: Ki by Morrison equation; pH 5.5, substrate Z-Phe-Arg-Amc; read-out: Cat L
Source text: Two wells contained DMSO only for controls.
Velocity was converted to μM/sec.

[2] = target: Calpain; assay: Calpain enzyme assay; assay type: biochemical; settings: Ki by Morrison equation; pH 7.5, 5 mM CaCl2

Cathepsin L, sequence (P07711 114-333, species assumed): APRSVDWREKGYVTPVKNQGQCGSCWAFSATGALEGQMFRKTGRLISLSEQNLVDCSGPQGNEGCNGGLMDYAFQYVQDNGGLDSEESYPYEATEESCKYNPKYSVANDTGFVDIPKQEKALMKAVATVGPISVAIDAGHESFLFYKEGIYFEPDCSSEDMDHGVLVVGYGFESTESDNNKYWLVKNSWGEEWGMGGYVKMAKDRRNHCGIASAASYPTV

| SMILES | Ki [1] [nM] | Ki [2] [nM] |
| --- | --- | --- |
| CCC(C)C(NC(=O)C(CC(C)C)NC(=O)Cc1ccncc1)C(=O)C(=O)NCC(=O)NC(Cc1ccc2ccccc2c1)C(N)=O (stereo not shown) [PHELIX333, N-(2-((1-amino-3-(naphthalen-2-yl)-1-oxopropan-2-yl)amino)-2-oxoethyl)-4-methyl-3-(4-methyl-2-(2-(pyridin-4-yl)acetamido)pentanamido)-2-oxohexanamide] | 0.59 | 0.98 |
| CCC(C)C(NC(=O)C(CC(C)C)NC(=O)NCc1ccccc1)C(=O)C(=O)NCC(=O)NC(Cc1ccc2ccccc2c1)C(N)=O (stereo not shown) [PHELIX334, N-(2-((1-amino-3-(naphthalen-2-yl)-1-oxopropan-2-yl)amino)-2-oxoethyl)-3-(2-(3-benzylureido)-4-methylpentamido)-4-methyl-2-oxohexanamide] | 0.43 | 0.67 |
| CCC(C)C(NC(=O)C(CC(C)C)NC(=O)Nc1ccccc1)C(=O)C(=O)NCC(=O)NC(Cc1ccc2ccccc2c1)C(N)=O (stereo not shown) [PHELIX335, N-(2-((1-amino-3-(naphthalen-2-yl)-1-oxopropan-2-yl)amino)-2-oxoethyl)-4-methyl-3-(4-methyl-2-(3-phenylureido)pentanamido)-2-oxohexanamide] | < 0.15 | 1.45 |
| CCC(C)C(NC(=O)C(CC(C)C)NC(=O)OCc1ccccc1)C(=O)C(=O)NC(CC#N)C(=O)NC(Cc1ccc2ccccc2c1)C(N)=O (stereo not shown) [PHELIX336, benzyl (1-((1-((1-((1-amino-3-(naphthalen-2-yl)-1-oxopropan-2-yl)amino)-3-cyano-1-oxopropan-2-yl)amino)-4-methyl-1,2-dioxohexan-3-yl)amino)-4-methyl-1-oxopentan-2-yl)carbamate] | 4.04 | 33.6 |
| CC[C@H](C)C(NC(=O)[C@H](CC#N)NC(=O)Cc1ccccc1)C(=O)C(=O)NCC(=O)N[C@@H](Cc1ccc2ccccc2c1)C(N)=O (stereo partly shown) [PHELIX337, N-(2-((1-amino-3-(naphthalen-2-yl)-1-oxopropan-2-yl)amino)-2-oxoethyl)-3-(3-cyano-2-(2-phenylacetamido)propanamido)-4-methyl-2-oxohexanamide] | 8.48 | 224 |
| CCC(C)C(NC(=O)C(CC(C)C)NC(=O)OCc1ccccc1)C(=O)C(=O)NC(CCCNC(N)=O)C(N)=O (stereo not shown) [PHELIX340, benzyl (1-((1-((1-amino-1-oxo-5-ureidopentan-2-yl)amino)-4-methyl-1,2-dioxohexan-3-yl)amino)-4-methyl-1-oxopentan-2-yl)carbamate] | 3.88 | 17.1 |
| CCC(C)C(NC(=O)C(CC(C)C)NC(=O)OCc1ccccc1)C(=O)C(=O)NC(CCCNC(N)=O)C(N)=O (stereo not shown) [PHELIX341, benzyl (1-((1-((1-amino-1-oxo-5-ureidopentan-2-yl)amino)-4-methyl-1,2-dioxohexan-3-yl)amino)-4-methyl-1-oxopentan-2-yl)carbamate] | 27.9 | 23.4 |
| CCC(C)C(NC(=O)C(CC(C)C)NC(=O)OCc1ccccc1)C(=O)C(=O)NC(Cc1ccncc1)C(N)=O (stereo not shown) [PHELIX342, benzyl (1-((1-((1-amino-1-oxo-3-(pyridin-4-yl)propan-2-yl)amino)-4-methyl-1,2-dioxohexan-3-yl)amino)-4-methyl-1-oxopentan-2-yl)carbamate] | 31.3 | 20.2 |
| CCC(C)C(NC(=O)C(CC(C)C)NC(=O)OCc1ccccc1)C(=O)C(=O)NC(Cc1cc2ccccc2[nH]1)C(N)=O (stereo not shown) [PHELIX343, benzyl (1-((1-((1-amino-3-(1H-indol-2-yl)-1-oxopropan-2-yl)amino)-4-methyl-1,2-dioxohexan-3-yl)amino)-4-methyl-1-oxopentan-2-yl)carbamate] | 3.53 | 34.1 |
| CC[C@H](C)C(NC(=O)[C@H](CC(C)C)NC(=O)OCc1ccccc1)C(=O)C(=O)N[C@@H](Cc1cccnc1)C(N)=O (stereo partly shown) [PHELIX344] | 20.6 | 26.7 |
| CCC(C)C(NC(=O)C(CC(C)C)NC(=O)C(Cc1ccccc1)NC(C)=O)C(=O)C(=O)NC(CCCNC(=N)N)C(N)=O (stereo not shown) [PHELIX345] | 11.3 | 37.1 |
